In US20080248134A1, “Oral compositions, use and combinations of N-[2-(dimethylamino)ethyl]-2,6 dimethyl-1-oxo-1,2-dihydrobenzo[b]-1,6-naphthyridine-4-carboxamide and closely related analogues thereof” (Auckland Uniservices Limited, priority 2005, published 2008):
“Also recorded” adds a separate entry of the source. Read-outs that look alike come from different tables or passages of the source.

What was measured:
Plasma pharmacokinetics = assay type: in vivo, mice; conditions: for AUC: read-out: area under the plasma concentration-time profile for the first 8 hours (AUC)
Experimental: The plasma pharmacokinetics of the compound of Formula II, were compared following intravenous, intraperitoneal and oral administration at a dose of 8.9 mg/kg (26 μmol/kg). Mice were terminally anaesthetised at various times up to 8 hours after drug administration and blood was taken for preparation of plasma samples. Plasma concentrations of the compound of Formula II were measured by high performance liquid chromatography-mass spectrophometry. The results are shown in FIG. 6, the vertical bars showing the standard deviation of the mean values from three mice per time point.
As expected from the rate of gastric emptying, the initial increase in plasma and liver drug concentrations occur later after oral administration than they do after intravenous or intraperitoneal administration, but the plasma and tissue half-lives are similar.

[1] = tested on: survivin in HCT116 (TP53 wild type); assay: Inhibition of survivin production, western blotting; assay type: cell-based, human; conditions: various concentrations, 24 hours
Experimental: Survivin is a protein that is expressed selectively in many types of cancer cells and which is known to be associated with resistance to apoptosis (Zaffaroni N and Daidone M G. Survivin expression and resistance to anticancer treatments: perspectives for new therapeutic interventions. Drug Resistance Updates: Reviews and Commentaries in Antimicrobial and Anticancer Chemotherapy. 2002 5(2):65-72). […] Extracts were prepared, proteins were separated by electrophoresis and survivin expression was determined by western blotting.

colon 38 tumours = assay: Murine colon 38 tumour response; assay type: in vivo; conditions: single oral dose (8.9 mg/kg)
Text: The murine colon-38 carcinoma is a transplantable tumour that has been used extensively in drug development programmes to determine the activity of many different drugs (Goldin A et al. Current results of the screening program at the Division of Cancer Treatment, National Cancer Institute. European Journal of Cancer. 1981. 17(2):129-142). The tumour is implanted subcutaneously as 1-mm^3 fragments and allowed to grow (8 days) to a tumour of approximately 3 mm in diameter before administration of test drugs.

[2] = intraperitoneal administration, 8.9 mg/kg, mice
[3] = intravenous administration, 8.9 mg/kg, mice

SMILES: Cc1cccc2cc3c(=O)n(C)cc(C(=O)NCCN(C)C)c3nc12 [Formula II, N-[2-(dimethylamino)ethyl]-2,6 dimethyl-1-oxo-1,2-dihydrobenzo[b]-1,6-naphthyridine-4-carboxamide]
- time-concentration profiles (plasma and liver) for the different routes of administration (Plasma pharmacokinetics; i.p., i.v. and p.o., non tumour bearing mice): quite comparable
- maximum plasma concentration (Plasma pharmacokinetics; [2]): 0.57 µM
- time at which maximum plasma concentration achieved (Plasma pharmacokinetics; [2]): 0.5 h
- maximum plasma concentration (Plasma pharmacokinetics; [3]): 1.24 µM
- time at which maximum plasma concentration achieved (Plasma pharmacokinetics; [3]): 0.08 h
- AUC (Plasma pharmacokinetics; mouse, plasma, ip, intraperitoneal administration, 8.9 mg/kg, mice): 1.63 µM·h
- bioavailability (Plasma pharmacokinetics; mouse, plasma, oral, relative to intraperitoneal administration, 8.9 mg/kg, mice, read-out: bioavailability following oral administration): 63%
- half-life (Plasma pharmacokinetics; mouse, plasma, all three routes of administration (i.v., i.p., oral), 8.9 mg/kg, mice, read-out: terminal plasma half life (converted)): ~210 min
- AUC (Plasma pharmacokinetics; mouse, plasma, intravenous administration, 8.9 mg/kg, mice): 1.99 µM·h
- AUC (Plasma pharmacokinetics; mouse, plasma, oral administration, 8.9 mg/kg, mice): 1.03 µM·h
- maximum plasma concentration (Plasma pharmacokinetics; oral administration, 8.9 mg/kg (26 μmol/kg), mice): 0.27 µM
- time at which maximum plasma concentration achieved (Plasma pharmacokinetics; oral administration, 8.9 mg/kg, mice): 2 h
- survivin expression [1]: suppress survivin production
- response of colon 38 tumours (colon 38 tumours): complete regression; also recorded: single dose cures
